Data reported in patent US10285989B2, “Pyrimidinone amide compounds as PDE2 inhibitors” (Merck Sharp & Dohme Corp., priority 2015, dated 2019).
Read-outs that look alike come from different tables or passages of the source.

Columns and labels:
P-glycoprotein (P-gp) = P-glycoprotein (P-gp) (Homo sapiens (Human), UniProt P08183); assay: P-gp transport, experimental BA/AB ratio, human; type: in vitro ADME; conditions: LLC-PK1, 1 μM substrate concentration
Excerpt: (§1) See Doan et al. “Passive permeability and P-glycoprotein-mediated efflux differentiate central nervous system (CNS) and non-CNS marketed drugs”, J. Pharm. Exper. […] Desirable human BA/AB ratio is less than 2.0. […] See, for example, Desai, et al. Integration of in Silico and in Vitro Tools for Scaffold Optimization during Drug Discovery: Predicting P-glycoprotein Efflux” Mol. Pharmac.

[1] = molecular target: P-glycoprotein (P-gp, rat Mdr1a) (Rattus norvegicus, UniProt Q6PSM0); assay: P-gp transport, experimental BA/AB ratio, rat LLC-Mdr1a; type: in vitro ADME; conditions: LLC-PK1; rat LLC-Mdrla; 1 μM substrate concentration
Sequence of P-glycoprotein (P-gp, rat Mdr1a) (Q6PSM0 1-1272): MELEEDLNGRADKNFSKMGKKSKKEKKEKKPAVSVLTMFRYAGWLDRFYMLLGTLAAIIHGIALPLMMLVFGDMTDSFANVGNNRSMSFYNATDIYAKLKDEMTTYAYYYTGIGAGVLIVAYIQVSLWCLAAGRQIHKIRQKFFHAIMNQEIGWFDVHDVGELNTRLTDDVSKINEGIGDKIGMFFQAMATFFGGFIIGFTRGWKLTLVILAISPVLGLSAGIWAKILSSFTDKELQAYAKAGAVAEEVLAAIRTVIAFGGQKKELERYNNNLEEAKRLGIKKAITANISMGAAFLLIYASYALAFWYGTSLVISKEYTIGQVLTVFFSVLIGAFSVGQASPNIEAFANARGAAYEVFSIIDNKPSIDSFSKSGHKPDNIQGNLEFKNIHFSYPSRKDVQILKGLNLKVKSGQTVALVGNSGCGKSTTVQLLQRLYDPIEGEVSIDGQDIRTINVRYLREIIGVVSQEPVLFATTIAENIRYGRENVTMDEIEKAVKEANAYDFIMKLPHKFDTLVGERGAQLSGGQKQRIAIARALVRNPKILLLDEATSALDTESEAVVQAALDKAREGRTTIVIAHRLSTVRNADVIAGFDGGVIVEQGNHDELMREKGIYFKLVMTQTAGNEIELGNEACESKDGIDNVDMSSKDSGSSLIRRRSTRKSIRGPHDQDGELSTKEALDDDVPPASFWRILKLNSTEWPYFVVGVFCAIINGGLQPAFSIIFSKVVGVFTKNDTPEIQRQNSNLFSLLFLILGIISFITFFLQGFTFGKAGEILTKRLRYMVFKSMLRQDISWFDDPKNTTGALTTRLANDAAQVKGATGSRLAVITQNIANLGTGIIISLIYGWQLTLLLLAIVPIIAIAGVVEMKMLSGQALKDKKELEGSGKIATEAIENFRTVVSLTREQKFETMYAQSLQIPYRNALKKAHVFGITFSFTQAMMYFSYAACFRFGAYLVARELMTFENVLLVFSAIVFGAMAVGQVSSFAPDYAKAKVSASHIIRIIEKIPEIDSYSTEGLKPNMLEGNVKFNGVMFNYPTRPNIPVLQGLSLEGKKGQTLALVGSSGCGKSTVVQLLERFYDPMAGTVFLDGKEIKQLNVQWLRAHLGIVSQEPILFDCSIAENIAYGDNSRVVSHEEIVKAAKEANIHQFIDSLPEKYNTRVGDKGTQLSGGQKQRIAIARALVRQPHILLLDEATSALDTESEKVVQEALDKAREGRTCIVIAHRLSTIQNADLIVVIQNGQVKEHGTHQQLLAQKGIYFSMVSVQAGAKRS
Excerpt: as §1

human PDE2A1 = human PDE2A1 (Homo sapiens (Human), UniProt O00408); assay: PDE2 IMAP FP inhibition assay, human PDE2A1 (selectivity panel format); type: biochemical
Sequence of human PDE2A1 (O00408 other isoform, or with tags, fused parts or gaps): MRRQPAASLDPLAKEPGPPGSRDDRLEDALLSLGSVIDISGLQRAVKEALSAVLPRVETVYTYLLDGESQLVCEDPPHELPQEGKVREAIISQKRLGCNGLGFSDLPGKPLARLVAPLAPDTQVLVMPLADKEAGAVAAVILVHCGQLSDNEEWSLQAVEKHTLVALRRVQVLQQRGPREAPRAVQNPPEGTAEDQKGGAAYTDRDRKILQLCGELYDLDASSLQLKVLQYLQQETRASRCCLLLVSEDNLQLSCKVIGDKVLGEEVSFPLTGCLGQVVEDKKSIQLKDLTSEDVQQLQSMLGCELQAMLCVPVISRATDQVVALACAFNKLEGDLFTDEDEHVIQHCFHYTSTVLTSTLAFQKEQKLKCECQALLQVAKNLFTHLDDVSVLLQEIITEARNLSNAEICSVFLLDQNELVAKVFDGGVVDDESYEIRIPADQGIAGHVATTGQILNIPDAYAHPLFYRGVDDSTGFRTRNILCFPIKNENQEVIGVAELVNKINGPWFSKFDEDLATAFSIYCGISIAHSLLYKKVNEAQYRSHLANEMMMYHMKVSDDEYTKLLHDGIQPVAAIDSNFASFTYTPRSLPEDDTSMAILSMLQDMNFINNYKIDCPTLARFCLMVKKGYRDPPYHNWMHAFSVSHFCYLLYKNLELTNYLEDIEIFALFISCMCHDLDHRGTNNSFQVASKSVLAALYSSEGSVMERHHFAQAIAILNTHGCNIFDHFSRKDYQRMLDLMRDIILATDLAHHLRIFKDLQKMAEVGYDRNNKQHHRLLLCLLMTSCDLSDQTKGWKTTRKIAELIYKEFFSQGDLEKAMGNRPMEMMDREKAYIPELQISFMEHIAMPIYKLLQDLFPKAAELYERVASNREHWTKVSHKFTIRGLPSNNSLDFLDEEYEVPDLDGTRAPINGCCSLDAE
Procedure, shortened: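 Enzyme dosed to give about 20% substrate turnover acts for 60 min at room temperature on 50 nM FAM-cAMP plus 1000 nM cGMP (Tris pH 7.2, MgCl2, DTT, Tween-20 buffer). IMAP binding solution then stops the reaction; after 1 h, polarization is measured from parallel and perpendicular fluorescence.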

Rhesus PDE2A3 = Rhesus PDE2A3 (Macaca mulatta, UniProt B3VTJ2); assay: PDE2 fluorescence polarization (IMAP FP) inhibition assay, rhesus PDE2A3; type: biochemical, rhesus macaque
Sequence of Rhesus PDE2A3 (B3VTJ2 1-941): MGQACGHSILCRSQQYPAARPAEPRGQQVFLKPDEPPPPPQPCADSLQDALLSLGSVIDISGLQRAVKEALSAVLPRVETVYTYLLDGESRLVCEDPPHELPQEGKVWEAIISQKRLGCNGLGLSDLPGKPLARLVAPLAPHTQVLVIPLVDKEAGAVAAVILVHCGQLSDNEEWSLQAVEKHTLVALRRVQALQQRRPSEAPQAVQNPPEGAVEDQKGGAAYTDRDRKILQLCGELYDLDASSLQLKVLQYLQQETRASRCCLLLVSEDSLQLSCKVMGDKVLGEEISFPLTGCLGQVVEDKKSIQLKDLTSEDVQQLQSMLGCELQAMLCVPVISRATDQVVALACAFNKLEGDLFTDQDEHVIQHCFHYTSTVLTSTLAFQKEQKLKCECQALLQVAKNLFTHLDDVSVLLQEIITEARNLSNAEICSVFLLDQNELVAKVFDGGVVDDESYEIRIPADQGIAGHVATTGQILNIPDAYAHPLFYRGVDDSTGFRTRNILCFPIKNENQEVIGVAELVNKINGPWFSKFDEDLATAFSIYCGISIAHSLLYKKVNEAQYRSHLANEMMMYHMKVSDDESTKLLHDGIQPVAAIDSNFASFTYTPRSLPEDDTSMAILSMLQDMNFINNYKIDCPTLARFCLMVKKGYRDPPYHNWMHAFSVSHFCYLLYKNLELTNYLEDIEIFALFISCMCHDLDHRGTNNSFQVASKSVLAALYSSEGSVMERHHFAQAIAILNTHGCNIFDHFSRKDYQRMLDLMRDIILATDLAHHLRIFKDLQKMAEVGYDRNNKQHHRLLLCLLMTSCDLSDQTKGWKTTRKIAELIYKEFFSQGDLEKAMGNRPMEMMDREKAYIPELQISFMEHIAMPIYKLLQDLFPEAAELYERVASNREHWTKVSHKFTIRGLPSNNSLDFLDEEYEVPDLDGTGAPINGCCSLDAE

[2] = Lab A, read-out: Human PDE2 Ki (nM) - Lab A
[3] = Lab A, read-out: Rhesus PDE2 Ki (nM) - Lab A

Sequence of P-glycoprotein (P-gp) (P08183 whole entry): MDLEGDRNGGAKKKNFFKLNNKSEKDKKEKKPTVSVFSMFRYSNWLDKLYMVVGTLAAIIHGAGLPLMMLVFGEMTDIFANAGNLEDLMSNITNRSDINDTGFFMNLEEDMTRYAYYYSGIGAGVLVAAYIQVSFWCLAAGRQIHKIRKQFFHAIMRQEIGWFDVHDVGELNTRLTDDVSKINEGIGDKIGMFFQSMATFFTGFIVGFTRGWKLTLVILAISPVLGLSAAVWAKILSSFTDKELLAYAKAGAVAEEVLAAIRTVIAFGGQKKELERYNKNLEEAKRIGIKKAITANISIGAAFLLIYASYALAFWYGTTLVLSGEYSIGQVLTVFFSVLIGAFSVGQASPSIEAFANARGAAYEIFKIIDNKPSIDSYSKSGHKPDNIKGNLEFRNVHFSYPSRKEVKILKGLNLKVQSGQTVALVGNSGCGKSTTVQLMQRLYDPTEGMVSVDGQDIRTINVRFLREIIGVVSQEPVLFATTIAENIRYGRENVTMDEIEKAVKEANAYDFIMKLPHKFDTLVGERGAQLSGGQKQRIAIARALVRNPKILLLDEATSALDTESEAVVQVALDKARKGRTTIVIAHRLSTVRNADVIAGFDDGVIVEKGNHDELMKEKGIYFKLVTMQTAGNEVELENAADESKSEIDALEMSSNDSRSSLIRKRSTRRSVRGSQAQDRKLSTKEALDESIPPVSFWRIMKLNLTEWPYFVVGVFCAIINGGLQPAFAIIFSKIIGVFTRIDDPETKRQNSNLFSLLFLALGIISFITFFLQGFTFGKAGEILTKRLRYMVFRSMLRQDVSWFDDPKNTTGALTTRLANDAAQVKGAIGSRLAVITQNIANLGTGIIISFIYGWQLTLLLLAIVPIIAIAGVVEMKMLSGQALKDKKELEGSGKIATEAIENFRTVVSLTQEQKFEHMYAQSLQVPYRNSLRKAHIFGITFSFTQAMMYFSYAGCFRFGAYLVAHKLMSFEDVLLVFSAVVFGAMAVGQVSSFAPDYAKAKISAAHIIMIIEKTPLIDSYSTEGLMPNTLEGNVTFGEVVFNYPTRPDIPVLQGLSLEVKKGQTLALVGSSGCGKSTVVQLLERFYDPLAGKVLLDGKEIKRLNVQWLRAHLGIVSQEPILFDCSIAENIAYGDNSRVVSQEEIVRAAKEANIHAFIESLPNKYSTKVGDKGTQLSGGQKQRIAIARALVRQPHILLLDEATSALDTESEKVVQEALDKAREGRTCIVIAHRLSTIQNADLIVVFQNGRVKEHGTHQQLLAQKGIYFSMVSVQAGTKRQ

| efflux ratio at 1 μM (P-glycoprotein (P-gp)) | efflux ratio at 1 μM [1] | Ki (human PDE2A1; [2]) [nM] | Ki (Rhesus PDE2A3; [3]) [nM] | Ki (human PDE2A1; Lab B, read-out: Human PDE2 Ki (nM) - Lab B) [nM] | Ki (Rhesus PDE2A3; Lab B, read-out: Rhesus PDE2 Ki (nM) - Lab B) [nM] | SMILES |
| --- | --- | --- | --- | --- | --- | --- |
| 1.3 | 9.5 | 0.2 | 0.42 |  |  | CC(C)[C@@H](NC(=O)c1cc(=O)[nH]c(N2CCC2)n1)c1ccc(SC(F)(F)F)cc1 [Example 148, 2-azetidin-1-yl-N-[(1R)-2-methyl-1-{4-[(trifluoromethyl)sulfanyl]phenyl}propyl]-6-oxo-1,6-dihydropyrimidine-4-carboxamide] |
| 1.1 | 4.4 |  | 0.24 | 0.29 | 0.29 | CC(C)[C@@H](NC(=O)c1cc(=O)[nH]c(N(C)C)n1)c1ccc(SC(F)(F)F)c(F)c1 [Example 150, 2-(dimethylamino)-N-[(1R)-1-{3-fluoro-4-[(trifluoromethyl)sulfanyl]phenyl}-2-methylpropyl]-6-oxo-1,6-dihydropyrimidine-4-carboxamide] |
| 10.4 | 24.7 | 9.9 | 18 |  |  | CC(C)[C@@H](NC(=O)c1cc(=O)[nH]c(N)n1)c1ccc(SC(F)(F)F)cc1 [Example 154, 2-amino-N-[(1R)-2-methyl-1-{4-[(trifluoromethyl)sulfanyl]phenyl}propyl]-6-oxo-1,6-dihydropyrimidine-4-carboxamide] |
| 4.2 | 9 | 1.2 | 4.3 |  |  | CNc1nc(C(=O)N[C@@H](c2ccc(SC(F)(F)F)c(F)c2)C(C)C)cc(=O)[nH]1 [Example 155, N-[(1R)-1-{3-fluoro-4-[(trifluoromethyl)sulfanyl]phenyl}-2-methylpropyl]-2-(methylamino)-6-oxo-1,6-dihydropyrimidine-4-carboxamide] |
| 11.1 | 11.3 | 10 | 24 |  |  | CC(C)[C@@H](NC(=O)c1cc(=O)[nH]c(N)n1)c1ccc(SC(F)(F)F)c(F)c1 [Example 156, 2-amino-N-[(1R)-1-{3-fluoro-4-[(trifluoromethyl)sulfanyl]phenyl}-2-methylpropyl]-6-oxo-1,6-dihydropyrimidine-4-carboxamide] |
| 17.1 | 28.8 | 1 | 1.6 |  |  | C[C@@H](NC(=O)c1cc(=O)[nH]c(N2Cc3ccncc3C2)n1)c1ccc(C(F)(F)F)cc1 [Example 160, 2-(1,3-dihydro-2H-pyrrolo[3,4-c]pyridin-2-yl)-6-oxo-N-{(1R)-1-[4-(trifluoromethyl)phenyl]ethyl}-1,6-dihydropyrimidine-4-carboxamide] |
| 14.6 | 23.7 | 5 | 5.1 |  |  | C[C@@H](NC(=O)c1cc(=O)[nH]c(N2Cc3cncnc3C2)n1)c1ccc(C(F)(F)F)cc1 [Example 161, 2-(5,7-dihydro-6H-pyrrolo[3,4-d]pyrimidin-6-yl)-6-oxo-N-{(1R)-1-[4-(trifluoromethyl)phenyl]ethyl}-1,6-dihydropyrimidine-4-carboxamide] |

| SMILES | efflux ratio at 1 μM (P-glycoprotein (P-gp)) | efflux ratio at 1 μM [1] | Ki (human PDE2A1; [2]) [nM] | Ki (Rhesus PDE2A3; [3]) [nM] | Ki (human PDE2A1; Lab B, read-out: Human PDE2 Ki (nM) - Lab B) [nM] | Ki (Rhesus PDE2A3; Lab B, read-out: Rhesus PDE2 Ki (nM) - Lab B) [nM] |
| --- | --- | --- | --- | --- | --- | --- |
| CNc1nc(C(=O)N[C@@H](c2ccc(OC(F)(F)F)c(F)c2)C(C)C)cc(=O)[nH]1 [Example 151, N-{(1R)-1-[3-fluoro-4-(trifluoromethoxy)phenyl]-2-methylpropyl}-2-(methylamino)-6-oxo-1,6-dihydro-pyrimidine-4-carboxamide] | 6.5 | 18.7 | 2.8 | 4.7 |  |  |
| CC(C)[C@@H](NC(=O)c1cc(=O)[nH]c(N)n1)c1ccc(OC(F)(F)F)c(F)c1 [Example 152, 2-amino-N-{(1R)-1-[3-fluoro-4-(trifluoromethoxy)phenyl]-2-methylpropyl}-6-oxo-1,6-dihydropyrimidine-4-carboxamide] | 11.6 | 29.2 | 19 | 33 |  |  |
